Data from patent US20100098633A1, “SELECTIVE SEPRASE INHIBITORS” (Molecular Insight Pharmaceuticals, Inc., priority 2008, published 2010).

Biological target: T1, recombinant human seprase (rhFAP) (Homo sapiens, UniProt Q12884)
T1 sequence (Q12884 26-760 limits assumed): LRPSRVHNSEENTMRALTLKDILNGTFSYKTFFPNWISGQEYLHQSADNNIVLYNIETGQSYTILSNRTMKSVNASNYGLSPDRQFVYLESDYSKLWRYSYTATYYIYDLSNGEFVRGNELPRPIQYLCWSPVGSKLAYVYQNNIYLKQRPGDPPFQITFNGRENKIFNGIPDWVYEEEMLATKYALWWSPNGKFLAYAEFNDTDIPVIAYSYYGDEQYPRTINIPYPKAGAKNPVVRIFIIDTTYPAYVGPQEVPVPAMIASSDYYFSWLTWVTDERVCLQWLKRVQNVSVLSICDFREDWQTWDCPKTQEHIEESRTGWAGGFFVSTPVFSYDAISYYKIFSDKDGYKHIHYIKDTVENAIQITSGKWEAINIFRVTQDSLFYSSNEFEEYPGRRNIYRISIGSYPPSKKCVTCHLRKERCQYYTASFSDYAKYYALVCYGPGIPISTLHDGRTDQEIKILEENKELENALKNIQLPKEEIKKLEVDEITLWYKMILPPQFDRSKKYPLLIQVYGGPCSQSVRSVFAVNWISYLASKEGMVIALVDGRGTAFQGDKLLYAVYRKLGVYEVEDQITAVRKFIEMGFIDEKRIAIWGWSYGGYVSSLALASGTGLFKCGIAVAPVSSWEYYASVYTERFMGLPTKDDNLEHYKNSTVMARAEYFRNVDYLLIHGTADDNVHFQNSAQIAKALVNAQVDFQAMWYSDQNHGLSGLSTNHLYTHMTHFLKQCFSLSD
Assay: Inhibition of enzymatic activity of recombinant human seprase on Z-Gly-Pro-AMC (fluorescence)
Assay type: biochemical
Details: in vitro data against seprase; read-out: FAP (IC50 nM)
Experimental: In vitro assaying of compounds for inhibition of dipeptidyl peptidase activity of seprase and DPP-IV can be achieved following the described in Edosada C. Y. et al. J. Biolog. Chem. 2006, 281, 7437-7444.
Selected test compounds were examined for their ability to inhibit the enzymatic activity of recombinant human seprase (rhFAP) on the substrate, benzyloxycarbonyl-Gly-Pro-7-amido-4-methylcoumarin (Z-Gly-Pro-AMC). In brief, 10 μg rhFAP was added to 50 μM Z-Gly-Pro-AMC in the presence of increasing concentrations of test compound, and enzymatic activity was determined by monitoring fluorescence (Ex. 355 nm/Em. 460 nm). Compound 1051 is the known inhibitor, Cbz-Gly-boroproline. Initial velocity of the reaction was calculated and normalized to control reactions conducted in the absence of test compound.
The inhibition was measured by the half maximal inhibitory concentration (IC50) of a compound of interest. The IC50 indicates how much of a particular compound is needed to inhibit seprase by half.

Compound | IC50 [nM]
Re(CO)3[1-(2-(6-(bis((1-methyl-1H-imidazol-2-yl)methyl)amino) hexanamido)acetyl)pyrrolidin-2-ylboronic acid] [Compound 1018] | 20
N#C[C@@H]1CCCN1C(=O)CNC(=O)c1ccc(I)cc1Cl [Compound 1041, (S)-2-chloro-N-(2-(2-cyanopyrrolidin-1-yl)-2-oxoethyl)-4-iodobenzamide] | 692
